Measured values published in patent US20080207527A1, “Bicyclic Compounds Which Inhibit Beta-Secretase Activity and Methods of Use Thereof” (CoMentis, Inc., priority 2004, published 2008).

Assays:
memapsin 2 = memapsin 2 (Homo sapiens, UniProt P56817); assay: Inhibition of memapsin 2 beta-secretase activity toward fluorogenic substrate FS-2; format: biochemical; conditions: pH 4, 37° C., 20 minutes pre-incubation, read-out: M2 Ki
Description: Potency of compounds were determined by measurement of their inhibition of memapsin 2 activity toward a fluorescent substrate. […] Briefly, assays were performed at pH 4, 37° C., by pre-incubation of memapsin 2 enzyme with compound for 20 minutes. Activity measure was initiated by addition of a fluorogenic substrate FS-2 (Bachem Americas, Torrance, Calif.). Fluorescent signal increase over time was measured as a rate of hydrolysis of the peptide substrate.

Aβ production = assay: Cellular Aβ IC50 determination (Aβ40 sandwich ELISA); format: cell-based; conditions: Cricetulus griseus, Chinese hamster ovary cells over-expressing human APP695 with London and Swedish mutations, 24 h
Description: The potency of compounds against memapsin 2 activity was determined in a cellular assay of Aβ production. […] Chinese hamster ovary cells that over-express human APP695 with the London and Swedish mutations were seeded in multi-well plates at 10% confluency. Compounds were dissolved in DMSO to concentrations near 1 mM, and diluted into culture media to a final concentration near 4 μM (final 0.4% DMSO). Compounds were diluted serially and applied to cells in multi-well plates 48 h after seeding. Incubation was continued in 5% CO2 at 37 degrees C. for 24 h. Aliquots were removed and assayed for Aβ40 content using a sandwich ELISA (BioSource International). Amount of Aβ40 over the range of concentration of compounds, relative to control incubations, were fit to a 4-parameter IC50 model.

Chain of memapsin 2 (P56817 46-501): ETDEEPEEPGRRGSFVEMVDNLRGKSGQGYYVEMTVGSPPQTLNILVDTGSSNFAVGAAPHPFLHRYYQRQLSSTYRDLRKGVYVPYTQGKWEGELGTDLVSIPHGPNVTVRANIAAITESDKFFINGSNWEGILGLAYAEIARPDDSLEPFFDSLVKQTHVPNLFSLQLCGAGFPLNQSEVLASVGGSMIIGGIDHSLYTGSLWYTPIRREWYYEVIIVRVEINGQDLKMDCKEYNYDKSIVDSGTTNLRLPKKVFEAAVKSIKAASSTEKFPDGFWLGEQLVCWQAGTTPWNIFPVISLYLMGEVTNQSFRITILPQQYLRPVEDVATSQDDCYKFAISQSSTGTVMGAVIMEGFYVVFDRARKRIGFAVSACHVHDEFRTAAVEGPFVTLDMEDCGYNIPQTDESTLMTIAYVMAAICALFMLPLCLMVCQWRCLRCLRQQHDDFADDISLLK

SMILES | Ki (memapsin 2) [nM] | IC50 (Aβ production) [µM]
CC(C)CNC(=O)C(NC(=O)C(C)CC(O)C(CC(C)C)NC(=O)c1cc(OCC(O)CN=[N+]=[N-])cc(C(=O)NC(C)c2ccccc2)c1)C(C)C (stereo not drawn) [5-(3-azido-2-hydroxypropoxy)-N1-(5-hydroxy-8-(1-(isobutylamino)-3-methyl-1-oxobutan-2-ylamino)-2,7-dimethyl-8-oxooctan-4-yl)-N3-(1-phenylethyl)isophthalamide] | 405 to 2000 | 
CC(C)CC(NC(=O)c1cc(C(=O)NC(CO)c2ccccc2)cc(N(C)S(C)(=O)=O)c1)C(O)CC(C)C(=O)NC(C(=O)NC(C)C)C(C)C (stereo not drawn) [N1-(2-hydroxy-1-phenylethyl)-N3-(5-hydroxy-8-(1-(isopropylamino)-3-methyl-1-oxobutan-2-ylamino)-2,7-dimethyl-8-oxooctan-4-yl)-5-(N-methylmethylsulfonamido)isophthalamide] | 405 to 2000 | > 20
CC(C)CC(NC(=O)c1cc(C(=O)NC(C)c2ccccc2)cc(N(C)S(C)(=O)=O)c1)C(O)CC(C)C(=O)NC(C(=O)NCC1CN(C)C1)C(C)C (stereo not drawn) [N1-(5-hydroxy-2,7-dimethyl-8-(3-methyl-1-((1-methylazetidin-3-yl)methylamino)-1-oxobutan-2-ylamino)-8-oxooctan-4-yl)-5-(N-methylmethylsulfonamido)-N3-(1-phenylethyl)isophthalamide] | < 405 | < 5
CC(C)CC(NC(=O)c1cc(C(=O)NC(C)c2ccccc2)cc(N(C)S(C)(=O)=O)c1)C(O)CC(C)C(=O)NC(C(=O)NCC1CCN(C)CC1)C(C)C (stereo not drawn) [N1-(5-hydroxy-2,7-dimethyl-8-(3-methyl-1-((1-methylpiperidin-4-yl)methylamino)-1-oxobutan-2-ylamino)-8-oxooctan-4-yl)-5-(N-methylmethylsulfonamido)-N3-(1-phenylethyl)isophthalamide] | < 405 | < 5
CC(C)CNC(=O)C(NC(=O)C(C)CC(O)C(CC(C)C)NC(=O)c1cc(OCC2CNC(=O)O2)cc(C(=O)NC(C)c2ccccc2)c1)C(C)C (stereo not drawn) [N1-(5-hydroxy-8-(1-(isobutylamino)-3-methyl-1-oxobutan-2-ylamino)-2,7-dimethyl-8-oxooctan-4-yl)-5-((2-oxooxazolidin-5-yl)methoxy)-N3-(1-phenylethyl)isophthalamide] | < 405 | 
CC(=O)N(C)c1cc(C(=O)NC(C)c2ccccc2)cc(C(=O)NC(CC(C)C)C(O)CC(C)C(=O)NC(C(=O)NCC(C)C)C(C)C)c1 (stereo not drawn) [N1-(5-hydroxy-8-(1-(isobutylamino)-3-methyl-1-oxobutan-2-ylamino)-2,7-dimethyl-8-oxooctan-4-yl)-5-(N-methylacetamido)-N3-(1-phenylethyl)isophthalamide] | < 405 | 5 to 10
CNS(=O)(=O)c1cc(C(=O)NC(C)c2ccccc2)cc(C(=O)NC(CC(C)C)C(O)CC(C)C(=O)NC(C(=O)NCC(C)C)C(C)C)c1 (stereo not drawn) [N1-(5-hydroxy-8-(1-(isobutylamino)-3-methyl-1-oxobutan-2-ylamino)-2,7-dimethyl-8-oxooctan-4-yl)-5-(N-methylsulfamoyl)-N3-(1-phenylethyl)isophthalamide] | < 405 | 5 to 10
Cc1cc(C(=O)NC(CC(C)C)C(O)CC(C)C(=O)NC(C(=O)NCC(C)C)C(C)C)cc(C(=O)N(C)Cc2ccccn2)c1 (stereo not drawn) [N1-(5-hydroxy-8-(1-(isobutylamino)-3-methyl-1-oxobutan-2-ylamino)-2,7-dimethyl-8-oxooctan-4-yl)-N3,5-dimethyl-N3-(pyridin-2-ylmethyl)isophthalamide] | < 405 | > 20
Cc1cc(C(=O)NC(CC(C)C)C(O)CC(C)C(=O)NC(C(=O)NCC(C)C)C(C)C)cc(C(=O)N(C)Cc2cccnc2)c1 (stereo not drawn) [N1-(5-hydroxy-8-(1-(isobutylamino)-3-methyl-1-oxobutan-2-ylamino)-2,7-dimethyl-8-oxooctan-4-yl)-N3,5-dimethyl-N3-(pyridin-3-ylmethyl)isophthalamide] | < 405 | 10 to 20
CC(C)CNC(=O)C(NC(=O)C(C)CC(O)C(CC(C)C)NC(=O)c1cccc(C(=O)N(C)Cc2cccc(O)c2)c1)C(C)C (stereo not drawn) [N1-(5-hydroxy-8-(1-(isobutylamino)-3-methyl-1-oxobutan-2-ylamino)-2,7-dimethyl-8-oxooctan-4-yl)-N3-(3-hydroxybenzyl)-N3-methylisophthalamide] | 405 to 2000 | > 20
COc1cccc(CN(C)C(=O)c2cccc(C(=O)NC(CC(C)C)C(O)CC(C)C(=O)NC(C(=O)NCC(C)C)C(C)C)c2)c1 (stereo not drawn) [N1-(5-hydroxy-8-(1-(isobutylamino)-3-methyl-1-oxobutan-2-ylamino)-2,7-dimethyl-8-oxooctan-4-yl)-N3-(3-methoxybenzyl)-N3-methylisophthalamide] | 405 to 2000 | > 20
Cc1csc(CN(C(=O)c2cccc(C(=O)NC(CC(C)C)C(O)CC(C)C(=O)NC(C(=O)NCC(C)C)C(C)C)c2)C(C)C)n1 (stereo not drawn) [N1-(5-hydroxy-8-(1-(isobutylamino)-3-methyl-1-oxobutan-2-ylamino)-2,7-dimethyl-8-oxooctan-4-yl)-N3-isopropyl-N3-((4-methylthiazol-2-yl)methyl)isophthalamide] | < 405 | 
CC(C)CNC(=O)C(NC(=O)C(C)CC(O)C(CC(C)C)NC(=O)c1cc(C(=O)N(C)Cc2ccncc2)cc(N(C)S(C)(=O)=O)c1)C(C)C (stereo not drawn) [N1-(5-hydroxy-8-(1-(isobutylamino)-3-methyl-1-oxobutan-2-ylamino)-2,7-dimethyl-8-oxooctan-4-yl)-N3-methyl-5-(N-methylmethylsulfonamido)-N3-(pyridin-4-ylmethyl)isophthalamide] | < 405 | > 20
Cc1nc(CN(C)C(=O)c2cccc(C(=O)NC(CC(C)C)C(O)CC(C)C(=O)NC(C(=O)NCC(C)C)C(C)C)c2)cs1 (stereo not drawn) [N1-(5-hydroxy-8-(1-(isobutylamino)-3-methyl-1-oxobutan-2-ylamino)-2,7-dimethyl-8-oxooctan-4-yl)-N3-methyl-N3-((2-methylthiazol-4-yl)methyl)isophthalamide] | < 405 | 
CC(C)CC(NC(=O)c1cc(C(=O)NC(C)c2ccccc2)cc(N(C)S(C)(=O)=O)c1)C(O)CC(C)C(=O)NC(C(=O)NC(C)C)C(C)C (stereo not drawn) [N1-(5-hydroxy-8-(1-(isopropylamino)-3-methyl-1-oxobutan-2-ylamino)-2,7-dimethyl-8-oxooctan-4-yl)-5-(N-methylmethylsulfonamido)-N3-(1-phenylethyl)isophthalamide] |  | < 5
COc1cccc(CNC(=O)CNC(=O)C(C)CC(O)C(CC(C)C)NC(=O)c2cc(C(=O)NC(C)c3ccccc3)cc(N(C)S(C)(=O)=O)c2)c1 (stereo not drawn) [N1-(5-hydroxy-8-(2-(3-methoxybenzylamino)-2-oxoethylamino)-2,7-dimethyl-8-oxooctan-4-yl)-5-(N-methylmethylsulfonamido)-N3-(1-phenylethyl)isophthalamide] | 405 to 2000 | 
CCCN(CCC)C(=O)c1cccc(C(=O)NC(CC(C)C)C(O)CC(C)C(=O)NCC(C)C)c1 (stereo not drawn) [N1-(5-hydroxy-8-(isobutylamino)-2,7-dimethyl-8-oxooctan-4-yl)-N3,N3-dipropylisophthalamide] | 2000 to 5000 | 
CCc1csc(CNC(=O)c2cc(C(=O)NC(CC(C)C)C(O)CC(C)C(=O)NC(C(=O)NCC(C)C)C(C)C)cc(N(C)S(C)(=O)=O)c2)n1 (stereo not drawn) [N1-((4-ethylthiazol-2-yl)methyl)-N3-(5-hydroxy-8-(1-(isobutylamino)-3-methyl-1-oxobutan-2-ylamino)-2,7-dimethyl-8-oxooctan-4-yl)-5-(N-methylmethylsulfonamido)isophthalamide] | < 405 | 
CC(C)CC(NC(=O)c1cc(C(=O)NCc2ccccc2)cc(N(C)S(C)(=O)=O)c1)C(O)CC(C)C(=O)NC(C(=O)NC(C)C)C(C)C (stereo not drawn) [N1-benzyl-N3-(5-hydroxy-8-(1-(isopropylamino)-3-methyl-1-oxobutan-2-ylamino)-2,7-dimethyl-8-oxooctan-4-yl)-5-(N-methylmethylsulfonamido)isophthalamide] |  | 5 to 10
CCCN(CCC)C(=O)c1cncc(C(=O)NC(CC(C)C)C(O)CC(C)C(=O)NC(C(=O)NC(C)C)C(C)C)c1 (stereo not drawn) [N3-(5-hydroxy-8-(1-(isopropylamino)-3-methyl-1-oxobutan-2-ylamino)-2,7-dimethyl-8-oxooctan-4-yl)-N5,N5-dipropylpyridine-3,5-dicarboxamide] | < 405 | 
CCN(Cc1ccncc1)C(=O)c1cncc(C(=O)NC(CC(C)C)C(O)CC(C)C(=O)NC(C(=O)NCC(C)C)C(C)C)c1 (stereo not drawn) [N3-ethyl-N5-(5-hydroxy-8-(1-(isobutylamino)-3-methyl-1-oxobutan-2-ylamino)-2,7-dimethyl-8-oxooctan-4-yl)-N3-(pyridin-4-ylmethyl)pyridine-3,5-dicarboxamide] | > 5000 | 
CC(C)CC(NC(=O)c1cc(C(=O)NC(C)c2ccccc2)cc(N(C)S(C)(=O)=O)c1)C(O)CC(NC(=O)OCc1ccccc1)C(=O)NC(C(=O)NC(C)C)C(C)C (stereo not drawn) [benzyl 4-hydroxy-1-(1-(isopropylamino)-3-methyl-1-oxobutan-2-ylamino)-7-methyl-5-(3-(N-methylmethylsulfonamido)-5-(1-phenylethylcarbamoyl)benzamido)-1-oxooctan-2-ylcarbamate] | 405 to 2000 | 
CCCN(CCC)C(=O)c1cc(NC(=O)OC(C)(C)C)cc(C(=O)NC(CC(C)C)C(O)CC(OC)C(=O)NC(C(=O)NC(C)C)C(C)C)c1 (stereo not drawn) [tert-butyl 3-(dipropylcarbamoyl)-5-(5-hydroxy-8-(1-(isopropylamino)-3-methyl-1-oxobutan-2-ylamino)-7-methoxy-2-methyl-8-oxooctan-4-ylcarbamoyl)phenylcarbamate] | > 5000 | 
